In US20220057377A1, “ANALYTICAL METHOD FOR DETERMINATION OF IN VITRO DRUG RELEASE PROFILE FROM MICRONEEDLE PATCHES” (ZOSANO PHARMA CORPORATION, priority 2020, published 2022):
Converted amounts (≈) assume the structure as drawn. “And” between values parts separate entries of the source, which are not always exact repeats. Equal entries are not always repeated. Where two headings read alike, the source gives them in different places.

Key:
[1] = Solubility of zolmitriptan at room temperature in PBS, water and IPA (in-house); type: physicochemical
Experimental: The solubility of zolmitriptan at room temperature in phosphate buffer saline (PBS), water, and isopropyl alcohol (IPA) were evaluated in-house. Zolmitriptan API was added into 200 mL of water, 10 mM phosphate buffer saline (PBS) at pH 7.4, and IPA until saturated. The solutions were then mixed at room temperature by stir bar overnight. Saturated solutions at 2 and 24 hours were filtered and analyzed for drug concentration by HPLC.

Sink condition = type: physicochemical
Experimental: The sink condition is defined as having a volume of medium at least three times that required to form a saturated solution of drug substance. […] The microneedle patch is coated with a specific amount (mg) of the bioactive agent and is intended to deliver a certain percentage of the drug. Based on the data from the solubility study described above, the sink condition can be met by various media.
The M207 patch is coated with 1.9 mg of zolmitriptan and is intended to deliver 100% of the drug. The mean drug content specification is 90.0%-110.0% of 1.9 mg. Based on the data from the solubility study, the sink condition was met for both the water and 10 mM PBS medium when applying volume of release medium of >6 mL. This is greater than three times the saturated solution in PBS (˜1.6 mL) for 1.9 mg of zolmitriptan released from the M207 patch.

[2] = Stability of zolmitriptan in 10 mM PBS release media; type: physicochemical
Experimental: In order for the drug to have fully released from the patches, a complete release time of 22 hours was noted. Therefore, stability of zolmitriptan in the release medium was evaluated for up to 24 hours.

[3] = Sample solution stability at 2-8° C.; type: physicochemical
Experimental: Sample solutions containing the released drug after the drug release tests were stored at 2-8° C. for a few days and injected to check the stability of the solution. Six sample solutions from each time points were aliquoted from release test tube and stored in refrigerator at 2-8 C for 15 days before being analyzed by HPLC. […] For the solution concentration is close to 1×-5× of the quantitation limit, 85%-115% recovery from fresh sample is considered reasonable.

[4] = cited from earlier work

- solubility ([1]; 10 mM PBS, pH 7.4, aqueous buffer, thermodynamic from solid): ~1200 µg/mL (≈ 4.18 mM)
- Zolmitriptan Concentration (saturated solution) ([1]; 10 mM PBS, pH 7.4, mixed 24 hours, room temperature): 1213.19 µg/mL
- solubility thermodynamic at 2 h ([1]; 10 mM phosphate buffer saline, aqueous buffer, thermodynamic from solid, 10 mM PBS, pH 7.4, mixed 2 hours, room temperature, read-out: Zolmitriptan Concentration (saturated solution)): 1240 µg/mL (≈ 4.3 mM)
- Zolmitriptan Concentration (saturated solution) ([1]; 100% IPA, mixed 2 hours, room temperature): 1691.82 µg/mL
- Zolmitriptan Concentration (saturated solution) ([1]; HPLC grade Water, mixed 2 hours, room temperature): 944.05 µg/mL
- Zolmitriptan Concentration (saturated solution) ([1]; HPLC grade Water, mixed 24 hours, room temperature): 1061.33 µg/mL
- solubility ([1]; isopropyl alcohol (IPA), organic solvent or mixture, thermodynamic from solid): ~1700 µg/mL (≈ 5.92 mM)
- solubility ([1]; water, thermodynamic from solid): ~1000 µg/mL (≈ 3.48 mM)
- volume of saturated solution in PBS (Sink condition; for 1.9 mg of zolmitriptan released from the M207 patch): ~1.6 mL
- volume of release medium at which sink condition was met (Sink condition; water and 10 mM PBS medium, 1.9 mg zolmitriptan): > 6 mL
- After 24 hours at 32° C. Concentration ([2]; T0 Concentration 0.49 μg/mL): 0.50 µg/mL
- After 24 hours at 32° C. Concentration ([2]; T0 Concentration 5.00 μg/mL): 5.02 µg/mL
- After 24 hours at 32° C. Concentration ([2]; T0 Concentration 335.94 μg/mL): 335.94 µg/mL
- stability in release media ([2]; up to 24 hours at 32° C.): remained stable
- Drug Amount ([3]; T = 15 days at 2-8 C, 1 hour release time point, Average of 6): 0.22 mg
- Drug Amount ([3]; T = 15 days at 2-8 C, 2 hours release time point, Average of 6): 0.33 mg
- Drug Amount ([3]; T = 15 days at 2-8 C, 3 hours release time point, Average of 6): 0.29 mg
- Drug Amount ([3]; T = 15 days at 2-8 C, 5 hours release time point, Average of 6): 0.42 mg
- Drug Amount ([3]; T = 15 days at 2-8 C, 12 hours release time point, Average of 6): 0.63 mg
- Drug Amount ([3]; T = 15 days at 2-8 C, 22 hours release time point, Average of 6): 0.18 mg
- Drug Amount ([3]; Time Zero, 1 hour release time point, Average of 6): 0.21 mg
- Drug Amount ([3]; Time Zero, 2 hours release time point, Average of 6): 0.33 mg
- Drug Amount ([3]; Time Zero, 3 hours release time point, Average of 6): 0.28 mg
- Drug Amount ([3]; Time Zero, 5 hours release time point, Average of 6): 0.41 mg
- Drug Amount ([3]; Time Zero, 12 hours release time point, Average of 6): 0.63 mg
- Drug Amount ([3]; Time Zero, 22 hours release time point, Average of 6): 0.17 mg
- Drug Amount ([3]; Time Zero, sample solution of 3 hours release time point, individual sample): 0.28 mg (3×) and 0.3 mg and 0.26 mg (2×)
SMILES: CN(C)CCc1c[nH]c2ccc(C[C@H]3COC(=O)N3)cc12 [zolmitriptan]
- Drug Amount ([3]; T = 15 days at 2-8 C, 1 hour release time point, individual sample): 0.22 mg and 0.20 mg (2×) and 0.25 mg and 0.23 mg and 0.21 mg
- Drug Amount ([3]; T = 15 days at 2-8 C, 2 hours release time point, individual sample): 0.33 mg (3×) and 0.35 mg and 0.32 mg (2×)
- Drug Amount ([3]; T = 15 days at 2-8 C, 3 hours release time point, individual sample): 0.29 mg (2×) and 0.31 mg and 0.30 mg and 0.26 mg (2×)
- Drug Amount ([3]; T = 15 days at 2-8 C, 5 hours release time point, individual sample): 0.41 mg and 0.48 mg and 0.44 mg and 0.36 mg and 0.42 mg and 0.38 mg
- Drug Amount ([3]; T = 15 days at 2-8 C, 12 hours release time point, individual sample): 0.60 mg and 0.83 mg and 0.76 mg and 0.46 mg and 0.64 mg and 0.51 mg
- Drug Amount ([3]; T = 15 days at 2-8 C, 22 hours release time point, individual sample): 0.15 mg and 0.28 mg and 0.25 mg and 0.10 mg and 0.17 mg and 0.12 mg
- Drug Amount ([3]; Time Zero, sample solution of 1 hour release time point, individual sample): 0.21 mg and 0.2 mg (2×) and 0.19 mg and 0.24 mg and 0.22 mg
- Drug Amount ([3]; Time Zero, sample solution of 2 hours release time point, individual sample): 0.33 mg (2×) and 0.34 mg and 0.32 mg (2×) and 0.31 mg
- Drug Amount ([3]; Time Zero, sample solution of 5 hours release time point, individual sample): 0.41 mg and 0.48 mg and 0.43 mg and 0.36 mg and 0.42 mg and 0.37 mg
- Drug Amount ([3]; Time Zero, sample solution of 12 hours release time point, individual sample): 0.59 mg and 0.85 mg and 0.75 mg and 0.45 mg and 0.63 mg and 0.51 mg
- Drug Amount ([3]; Time Zero, sample solution of 22 hours release time point, individual sample): 0.15 mg and 0.27 mg and 0.24 mg and 0.09 mg and 0.17 mg and 0.12 mg
- volume of solution in which each gram of solute dissolved ([4]; aqueous solution, pH range 4-14): ~10,000 mL
- Approximate volume of solvent in mL per gram of solute ([4]; pH 1): From 10 to 30 mL per gram of solute
- Descriptive Term (solubility) ([4]; pH 1): Soluble
- Approximate volume of solvent in mL per gram of solute ([4]; pH 2): From 100 to 500 mL per gram of solute
- Descriptive Term (solubility) ([4]; pH 2): Slightly soluble
- Approximate volume of solvent in mL per gram of solute ([4]; pH 3): More than 10,000 mL per gram of solute
- Descriptive Term (solubility) ([4]; pH 3): Practically insoluble
- Approximate volume of solvent in mL per gram of solute ([4]; pH 4): More than 10,000 mL per gram of solute
- Descriptive Term (solubility) ([4]; pH 4): Practically insoluble
- Approximate volume of solvent in mL per gram of solute ([4]; pH 7): More than 10,000 mL per gram of solute
- Descriptive Term (solubility) ([4]; pH 7): Practically insoluble
- Approximate volume of solvent in mL per gram of solute ([4]; pH 14): More than 10,000 mL per gram of solute
- Descriptive Term (solubility) ([4]; pH 14): Practically insoluble
- solubility in aqueous solution (descriptive) ([4]; pH range 4-14): slightly soluble to very slightly soluble
